From patent US9750728B2, “Method and pharmaceutical composition for inhibiting PI3K/AKT/mTOR signaling pathway” (TARGETED THERAPEUTICS, LLC, priority 2012, dated 2017)
“Also recorded” adds a separate entry of the source.

How the values were obtained:
Type in all cases: cell-based
[1] = tested on: IRS-1; test: Immunoblot analysis of IRS-1 (protein, phosphorylation, half-life, p85 coimmunoprecipitation); settings: for rapamycin-induced increase in IRS-1: rapamycin 10 nM plus ZPP 200 μM or Y29794 0.5 μM, 24 hours
Protocol: (§1) 2.2 Immunoblot analysis of gene silencing of PRCP or PREP in cancer cells. Mouse anti-PRCP antibody was purchased from Abcam (Cambridge, Mass., USA). Goat anti-PREP antibody was purchased from R&D Systems (Minneapolis, Minn., USA). Mouse anti-R-actin antibody antibodies was from Santa Cruz Biotechnology (Santa Cruz, Calif., USA). Panc-1 pancreatic cancer cells and MCF7 breast cancer cells were cultured to 80% confluence, cells were rinsed three times with pre-cooled PBS, 500 μl of lysis buffer (150 mmol/L Nacl, 1% Triton-x-100, 50 mmol/l TrispH8.0, 1 mmol/L PMSF, 1 ug/L aprotinin, 1 ug/L leupeptin, 1 ug/L peptain) was added to the cells. Cells were scraped and transferred to a centrifuge tube with a pipette. The lysates were spun in a microcentrifuge at maximal speed for 10 minutes at 4° C. to get rid of the insoluble fraction. Protein concentration was determined by Bradford assay. For immunoprecipitation: 2-5 ug protein-specific antibodies were added to 250-500 ug of lysates in a tube and incubated on an ordital shaker 4° C. for 2-4 hours with moderate shaking, then 20 ul Protein G beads (Santa Cruz Biotechnology (Santa Cruz, Calif., USA.) were added and the mixture was incubated with moderate shaking for another hour. After washing the beads in lysis buffer five times, the immunoprecipitates were boiled in 2× Laemmli sample buffer (50 mmoL/L Tris-HCL (pH8.0), 100 mmoL/L DTT, 2% SDS, 0.1% bromophenol blue, 10% glycerol) for five minutes. The proteins were separated by conventional SDS-polyacrylamide gel electrophoresis (SDS-PAGE) electrophoresis and transferred to Amersham Hybond-P PVDF membrane (GE Company, Pittsburgh, Pa., USA). For immunoblot, the membrane was blocked in 2% BSA in TBST buffer (Tris 1.21 g+NaCl 5.84 g+800 ml H2O adjusted to pH 8.0 with HCl) for one hour and then incubated with primary antibodies in TBST at room temperature (22-25° C.) for 2 hours. After washing three times with TBST, the membrane was incubated with HRP-conjugated secondary antibodies for 0.5 hours at room temperature. After washing the membrane five times with TBST (5 minutes/each), the membrane was incubated with ECL chromogenic reagent (GE Company, Pittsburgh, Pa., USA) for 1-5 minutes. The blots were exposed to films in darkroom for 1-5 minute. The films were developed in an automatic X-OMAT Developer (KODAK, Rochester, N.Y., USA). […] PREP gene silencing (PREP KD) or PRCP gene silencing (PRCP KD) or gene silencing both PRCP and PREP (DKD) in MCF7 cells reduces expression of PREP and/or PRCP proteins compared with control cells (control) (FIGS. 6B & 6C).
3.2 AKT phosphorylation was examined by immunoblot as described in 3.1. IRS-1 expression was analyzed by immunoblot using anti-IRS-1 antibodies purchased from Santa Cruz Biotechnology (Santa Cruz, Calif., USA). Reduction in PRCP and/or PREP by gene silencing is shown by Western blot and quantitative PCR described in 2.2.
3.4 ZPP or Y29794 inhibits IRS-1 tyrosine phosphorylation and p85 PI3K subunit interaction with IRS-1 and PI3K kinase activity. Panc-1 cells were treated with ZPP (200 μM) or Y29794 (0.5 μM) for 24 hours. Lysates were immunoprecipitated with anti-IRS-1 antibodies and the anti-IRS-1 immunoprecipitates were used for PI3K kinase assay and anti-IRS-1 phospho-tyrosine and anti-p85 immunoblot analysis (FIG. 13). ZPP or Y29794 decreased IRS-1-associated PI3K activity (FIG. 13, upper) and tyrosine phosphorylation of IRS-1 and p85 (FIG. 13, lower).
As described in Example 2.2 and above, the cells with PRCP and PREP gene silencing were used for analysis of PRCP and PREP gene silencing and inhibition of serine phosphorylation and degradation of IRS-1 and its effects on response to rapamycin. […] Compared to control cells, DKD cells show […] serine phosphorylation (S307 and S636/639) of IRS-1 alongside with decreased tyrosine phosphorylation of IRS-1 (FIG. 18B). […]

[2] = tested on: PI3K; test: PI3K kinase assay in anti-IRS-1 immunoprecipitates; settings: Panc-1, 24 hours; ZPP 200 μM, Y29794 0.5 μM or rapamycin alone
Protocol: PI3K kinase assay kit (Calbiochem, Bilerica, Mass., USA) was used to measure the IRS-1-associated or p85-associated PI3K kinase activity in cells. The indicated cells were treated with different conditions for 24 hours. The cells were rinsed three times with pre-cooled PBS, lysed in 500 μl of lysis buffer (150 mmol/L Nacl, 1% Triton-x-100, 50 mmol/1 Tris (pH8.0, 1 mmol/L PMSF, 1 μg/L aprotinin, 1 μg/Lleupeptin, 1 μg/L peptain). Cell lysates (500 μg, in triplicate) of were used for anti-IRS-1 or anti-p85 immunoprecipitation. The immunoprecipitates were resuspended in 200 μl assay buffer and mixed with the fluorescence-labeled PI3K substrate BODIPY-TMR-phosphatidylinositol (100 μM) and ATP (37° C.) for 1 hour. The fluorescence intensity was measured with a fluorometer (excitation wavelength of 540 nm, emission wavelength […]). The difference between fluorescence intensity between control immunoprecipitates (no lysates) and lysate immunoprecipitates was used to indicate PI3K kinase activity. IR-1 anti-rabbit antibody and rabbit anti-PI3K p85 antibody were purchased from Millipore Corporation (Billerica, Mass., USA). Panc-1 anti-p85 immunoprecipitates were used for PI3K kinase assay (FIG. 12) and immunoblot analysis (FIG. 12). Rapamycin treatment in control cells increased PI3K kinase activity (P<0.01). […]

[3] = tested on: AKT phosphorylation (S473); test: Immunoblot analysis of AKT phosphorylation in cancer cells; settings: for AKT phosphorylation: two days; for AKT phosphorylation (S473): ZPP 400 μM or Y29794 1 μM; for rapamycin-induced increase in phosphorylation of AKT: rapamycin 10 nM plus ZPP 200 μM or Y29794 0.5 μM, 24 hours
Protocol: as §1
3.1 Reduction in AKT phosphorylation is examined by immunoblot using rabbit anti-phospho-AKT […] and rabbit anti-pan AKT antibodies purchased from Cell Signaling Technology (Danvers, Mass., USA) in the cells with gene silencing of PRCP and/or PREP or treated with ZPP or Y29794. Reduction in PRCP and/or PREP is shown by Western blot and quantitative PCR described in 2.2.

[4] = Panc-1, 24 hours, ZPP 200 μM or Y29794 0.5 μM

CC(C)c1ccc(C(=O)c2cccs2)c(SCCCCCCCCN(C)C)n1 [Y29794, [2-[8-(dimethylamino)octylsulfanyl]-6-propan-2-ylpyridin-3-yl]-thiophen-2-ylmethanone]
rapamycin-induced increase in IRS-1 ([1]; MCF7): blocked
p85 coimmunoprecipitated with IRS-1 [1, 4]: reduces; also recorded: decreased
tyrosine phosphorylation of IRS-1 in anti-IRS-1 immunoprecipitates [1, 4]: reduces; also recorded: decreased
IRS-1 protein ([1]; Panc-1, Y29794 1 μM (FIG. 19A, 19B)): reduces; also recorded: significantly reduced
serine phosphorylation (S307 and S636/639) of IRS-1 ([1]; Panc-1, Y29794 1 μM (FIG. 19B)): induces; also recorded: increased
rapamycin-induced increase in IRS-1 protein ([1]; Panc-1, Y29794 1 μM with rapamycin (FIG. 19D)): inhibits; also recorded: not increased nor stabilized
rapamycin-induced increase in IRS-1 ([1]; Panc-1): blocked
IRS-1-associated PI3K activity [2]: reduce; also recorded: decreased
AKT phosphorylation ([3]; MCF7, Y29794 0.5 μM, vs vehicle (ethanol)): significantly decreased
AKT phosphorylation (S473) ([3]; MCF7, vs vehicle (FIG. 8B, 8E legend)): reduced
rapamycin-induced increase in phosphorylation of AKT ([3]; MCF7): blocked
AKT phosphorylation ([3]; PK-9, ZPP 200 μM or Y29794 0.5 μM, vs vehicle): significantly decreased
AKT phosphorylation (S473) ([3]; PK-9, vs vehicle (FIG. 8A, 8F legend)): reduced
AKT phosphorylation ([3]; Panc-1, ZPP 200 μM or Y29794 0.5 μM, vs vehicle): significantly decreased
phosphorylated AKT (S473) ([3]; Panc-1, ZPP 400 μM alone (FIG. 10A legend) or Y29794 0.5 μM alone (FIG. 11A legend)): reduced
AKT phosphorylation (S473) ([3]; Panc-1, vs vehicle (FIG. 8C, 8D legend)): reduced
rapamycin-induced increase in phosphorylation of AKT ([3]; Panc-1): blocked
